Experimental data taken from PMC6312236, “Functional characterization reveals that zebrafish CFTR prefers to occupy closed channel conformations” (PLoS ONE, 2018).

Legend:
Assay in all cases: inside-out patch clamp, macroscopic current
Assay type in all cases: biochemical
[1] = target: T1, WT-zCFTR (codon optimized zebrafish CFTR) (Danio rerio, UniProt Q1LX78); settings: 50 μM P-ATP relative to 2 mM ATP, PKA-phosphorylated channel, pH 7.4
T1 construct: full-length wild type, codon-optimized cDNA (from J. Chen), co-transfected with peGFP-C3 in CHO cells; PKA-phosphorylated in patches
T1 sequence (Q1LX78 1-1485): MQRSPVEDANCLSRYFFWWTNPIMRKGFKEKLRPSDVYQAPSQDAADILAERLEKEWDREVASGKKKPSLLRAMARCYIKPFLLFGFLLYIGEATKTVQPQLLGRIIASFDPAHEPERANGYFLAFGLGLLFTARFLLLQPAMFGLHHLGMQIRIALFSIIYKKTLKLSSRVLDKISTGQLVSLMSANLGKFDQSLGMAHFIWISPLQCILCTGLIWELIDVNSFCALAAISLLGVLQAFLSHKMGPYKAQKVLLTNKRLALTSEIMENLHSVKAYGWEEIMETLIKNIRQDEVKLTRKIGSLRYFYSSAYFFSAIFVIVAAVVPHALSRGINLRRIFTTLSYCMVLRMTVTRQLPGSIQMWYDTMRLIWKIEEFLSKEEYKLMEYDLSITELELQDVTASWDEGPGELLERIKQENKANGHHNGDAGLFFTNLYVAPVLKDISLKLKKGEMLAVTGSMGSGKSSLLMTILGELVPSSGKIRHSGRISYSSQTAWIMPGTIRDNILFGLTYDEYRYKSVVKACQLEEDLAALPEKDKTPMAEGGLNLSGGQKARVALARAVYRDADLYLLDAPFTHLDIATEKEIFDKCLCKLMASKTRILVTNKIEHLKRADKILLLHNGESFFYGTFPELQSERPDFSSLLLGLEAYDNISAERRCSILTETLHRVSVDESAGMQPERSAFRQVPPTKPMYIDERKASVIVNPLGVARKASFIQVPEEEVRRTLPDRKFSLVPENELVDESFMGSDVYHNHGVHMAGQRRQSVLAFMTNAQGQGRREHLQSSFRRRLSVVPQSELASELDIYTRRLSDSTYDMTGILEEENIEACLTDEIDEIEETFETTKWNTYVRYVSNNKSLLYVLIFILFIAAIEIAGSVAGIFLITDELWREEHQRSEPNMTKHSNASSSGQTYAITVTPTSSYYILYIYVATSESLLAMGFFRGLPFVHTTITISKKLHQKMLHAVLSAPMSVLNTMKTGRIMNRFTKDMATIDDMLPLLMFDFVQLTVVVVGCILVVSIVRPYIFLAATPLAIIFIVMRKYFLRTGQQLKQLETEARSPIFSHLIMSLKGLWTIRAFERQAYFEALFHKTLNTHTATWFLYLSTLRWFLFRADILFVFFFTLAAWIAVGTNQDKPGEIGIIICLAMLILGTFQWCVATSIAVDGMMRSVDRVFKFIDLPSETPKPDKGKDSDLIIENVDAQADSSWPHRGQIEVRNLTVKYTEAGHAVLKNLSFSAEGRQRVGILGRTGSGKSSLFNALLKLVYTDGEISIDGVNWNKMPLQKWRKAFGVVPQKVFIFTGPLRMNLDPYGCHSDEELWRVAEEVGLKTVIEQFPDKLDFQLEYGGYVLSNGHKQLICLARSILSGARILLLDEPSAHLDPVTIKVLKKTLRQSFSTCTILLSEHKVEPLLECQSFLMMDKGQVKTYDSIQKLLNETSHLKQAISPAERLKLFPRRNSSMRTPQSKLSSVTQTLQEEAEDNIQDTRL

[2] = target: T2, WT-nzCFTR (native form of zebrafish CFTR) (Danio rerio, UniProt Q1LX78); settings: 10 μM inhibitor, PKA-phosphorylated channel, pH 7.4, 22-24 °C
T2 construct: full-length wild type, native (not codon-optimized) cDNA from M. Bagnat lab, co-transfected with peGFP-C3 in CHO cells; PKA-phosphorylated in patches
T2 sequence (Q1LX78 1-1485): T1 sequence (Q1LX78 1-1485)

[3] = target: T1, WT-zCFTR (codon optimized zebrafish CFTR); settings: 10 μM inhibitor, PKA-phosphorylated channel, pH 7.4, 22-24 °C

SMILES: O=P(O)(O)OP(=O)(O)OP(=O)(O)OC[C@H]1O[C@@H](n2cnc3c(NCCc4ccccc4)ncnc32)[C@H](O)[C@@H]1O [N6‐Phenylethyl‐ATP]
- IP-ATP/IATP [1]: 0.88 ± 0.04

SMILES: O=C(O)c1ccc(/C=C2\SC(=S)N(c3cccc(C(F)(F)F)c3)C2=O)cc1 [CFTRinh-172]
- inhibition ratio at 10 μM [2]: 0.30 ± 0.04
- inhibition ratio at 10 μM [3]: 0.27 ± 0.03
